This is an account of results in publication PMC4924691, “Inhibition of the p53/hDM2 protein-protein interaction by cyclometallated iridium(III) compounds” (Oncotarget, 2016).

For one series, the target named is T1, p53/hDM2 interaction (Homo sapiens, UniProt Q00987).
T1 construct: Expression of hDM2_17–126 recombinant fragment was performed as described previously; made in house
Description: Fluorescence anisotropy (FA) assay, displacement of p53_15–31Flu from hDM2_17–126. The series is classed as binding. On the procedure:
To experimentally test the library of the organo-metallic iridium(III) compounds as p53/hDM2 PPI inhibitors, a fluorescence anisotropy (FA) assay was performed as previously described. hDM2_17–126 (recombinant fragment) was incubated with fluorescein-labelled p53 peptide (p53_15–31Flu) and serial dilutions of the organometallic iridium(III) compounds.
Figure 2 FA titration data of 1 1 was incubated with 150 nM hDM2_17–126 recombinant fragment and 50 nM fluorescein-labelled p53 peptide (p53_15–31Flu), and fluorescence anisotropy was measured at 480ex/535em.
Expression of hDM2_17–126 recombinant fragment was performed as described previously. Fluorescence anisotropy assays were used to study the displacement of p53 from hDM2 by organometallic compounds. The experiments were performed in triplicate in a volume of 60 μL of the assay buffer (40 mM Na3PO4, pH 7.50, 200 mM NaCl, 0.02 mg/mL BSA) in black flat-bottom 384-well plates. Different concentrations of organometallic compounds were diluted in the assay buffer containing 150 nM hDM2 and 50 nM p53_15–31Flu (Ac-[…](Flu)-NH2, Peptide Protein Research Ltd.) and incubated at room temperature for 30 min. The intensity and anisotropy was monitored at 480ex/535em ([…] bandwidth) using a Perkin Elmer EnvisionTM 2103 MultiLabel plate reader. The data was analyzed according to published methods.
(In general: In fluorescence polarisation assays a small probe gives low polarisation when free and higher when bound to something large.)

The subject of another series is GADD45α, PUMA, p21. The note with it: A375 cells. The protocol: (§1) Transactivation of p53 restricts cellular proliferation by inducing apoptosis and cycle arrest. Therefore, a terminal deoxynucleotidyl transferase (TdT)-mediated dUTP nick and labelling (TUNEL) and Hoechst staining assay were then performed to investigate DNA fragmentation, a hallmark of apoptosis, in apoptotic cells. […] Finally, the effect of 1 on caspase-3/7, an apoptotic executioner under the control of p53, was investigated in A375 cells using a homogeneous luminescence assay.
A375 cells seeded in 6-well plates were treated with vehicle, NVP-CGM097 or different concentrations of 1 for 6 h. Cells were then harvested and the quantity of each protein samples was measured by the BCA method. Same aliquot (30 μg) of each protein sample was separated by SDS-PAGE according to the reported procedure of immunoblotting. The signals were visualized using Enhanced chemiluminescent Plus reagents (GE Healthcare) and analyzed by Image Lab. The primary antibodies used were: anti-PUMA (1:500, Santa Cruz), anti-GADD45α (1:500, Santa Cruz), anti-p21 (1:500, Santa Cruz), anti-GAPDH (1:500, Santa Cruz), anti-p53 (1:500, Santa Cruz) and anti-hDM2 antibodies (1:500, Santa Cruz).

The test system of a further series is A375 cells. The note with it: 0.3 μM, 6 h. The protocol: as §1
For a further series, the system named is caspase-3/7. The conditions noted are these: A375 cells, 6 h, dose-dependent. The protocol: as §1
In a further series the test system is A2780. The note with it: read-out: IC50 (MTT), A2780; human ovarian carcinoma, p53 wt, 72 h. On the procedure: (§2) The cytotoxicity of 1 towards ten cancers cell lines with different p53 statuses (wt, mut or null) was subsequently examined assessed using the MTT assay (Supplementary Table S2).
(§3) Inhibition of cell growth was measured using the MTT reagent (3-(4, 5-dimethylthiazol-2-yl)-2, 5-diphenyltetrazolium bromide). Different cell lines with variable expression levels of p53 protein (A375, A549, HeLa, A2780, A431, MCF7, MD-MBA-231, MD-MBA-468, T47D and H1299 cell lines) were plated onto 96-well plates at a density of 4, 000 cells/well overnight prior to the addition of 1 at different concentrations ranging from 0.01–100 μM for a further 72 h. 10 μL MTT reagent (5 mg/mL) was added to the wells and the cells were incubated for an additional 4 h before 100 μL of DMSO was added to the wells. The absorbance of each well was read on a SpectraMax M5 microplate reader (Molecular Devices) at the wavelength of 570 nm.

A further series relates to A375. The note with it: read-out: IC50 (MTT), A375; human malignant melanoma, p53 wt, 72 h. On the procedure:
as §2, §3

The subject of a further series is A431. The note with it: read-out: IC50 (MTT), A431; human colon carcinoma (so in the source), p53 wt, 72 h. On the procedure:
as §2, §3

A further series has as its system A549. The conditions noted are these: read-out: IC50 (MTT), A549; human lung carcinoma, p53 wt, 72 h. The protocol:
as §2, §3

The test system of a further series is H1299. The note with it: read-out: IC50 (MTT), H1299; human lung carcinoma, p53 null, 72 h. On the procedure: as §2, §3
In the next series the test system is HeLa. The note with it: read-out: IC50 (MTT), HeLa; human cervix carcinoma, p53 wt, 72 h. On the procedure: as §2, §3
For another series, the system named is MCF7. The note with it: read-out: IC50 (MTT), MCF7; human breast carcinoma, p53 wt, 72 h. The protocol:
as §2, §3

The subject of the next series is MD-MBA-231. The conditions noted are these: read-out: IC50 (MTT), MD-MBA-231; human breast carcinoma, p53 mut, 72 h. On the procedure:
as §2, §3

The next series concerns MD-MBA-468. The note with it: read-out: IC50 (MTT), MD-MBA-468; human breast carcinoma, p53 mut, 72 h. The protocol:
as §2, §3

In a further series the test system is T47D. The conditions noted are these: read-out: IC50 (MTT), T47D; human breast carcinoma, p53 mut, 72 h. The protocol:
as §2, §3

For series [1] the following is noted: 298 K. An excerpt: (1 picture or pasted object on this page, not shown here) […]
The test system of series [2] is p53-driven luciferase activity. The note with it: A375 cells carrying endogenous wt p53, 6 h.
Description: A375 cells were co-transfected with p53 luciferase reporter gene (Addgene) and Renilla luciferase (Rluc) control reporter vectors at the ratio of 10:1 for 6 h in a 6-well plate. After transfection, cells were cultivated for another 18 h in the complete DMEM medium. Cells were then plated in a 96-well plate overnight. Serial dilutions of 1 were then added to the wells and the plate was incubated for 6 h. Luciferase reporter activity was then measured according to instruction of a dual reporter assay system (Progema) as previous reported [50].

T1 sequence (Q00987 17-126): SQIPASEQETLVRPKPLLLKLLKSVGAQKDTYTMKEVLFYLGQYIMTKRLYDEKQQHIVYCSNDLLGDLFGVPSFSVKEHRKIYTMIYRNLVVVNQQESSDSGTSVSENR

Consider `CCc1ccc2[c](c1)[Ir-3]13([c]4cc(CC)ccc4-c4cccc[n+]41)([n+]1ccccc1-2)[n+]1ccc(Cl)c2ccc4c(Cl)cc[n+]3c4c21.F[P-](F)(F)(F)(F)F` [Compound 1, 4,7-dichloro-1, 10-phenanthrolinebis(2-(4-ethylphenyl)pyridine)iridium(III) hexafluorophosphate], for which the IC50 stood at 16 µM on p53/hDM2 interaction (150 nM hDM2_17–126, 50 nM p53_15–31Flu, 30 min, room temperature, read-out: IC50 against the p53/hDM2 interaction as determined by a FA assay); 495 ± 32 nM with A2780; 647 ± 35.4 nM in the series on A375; 416 ± 37.4 nM in the series on A431; 232 ± 21.8 nM in the series on A549; 2200 ± 38.3 nM in the series with H1299. Further, the IC50 in the series with HeLa came to 480 ± 44.7 nM; with MCF7, 547 ± 41 nM; in the series on MD-MBA-231, 835 ± 42.9 nM; in the series on MD-MBA-468, 1890 ± 23.3 nM; in the series on T47D it was 783 ± 483 nM. Further, the “effect on fluorescence anisotropy / p53/hDM2 interaction” value at p53/hDM2 interaction (serial dilutions of compound, hDM2_17–126 with p53_15–31Flu) was “decreased significantly”. The “expression of GADD45α” value with GADD45α, PUMA, p21 is “significantly increased”. In the series with GADD45α, PUMA, p21, the “expression of PUMA” value is “significantly increased”. Further, the “expression of p21” value in the series with GADD45α, PUMA, p21 is reported as “induced”. In the series on A375 cells, the “DNA fragmentation (TUNEL)” value is on record as “induce DNA fragmentation”. The caspase-3/7 activities result in the series with caspase-3/7 is listed as “significantly activate”. For the same compound, the “time stable in solution (UV-Vis)” value in [1] (80% acetonitrile/20% Tris-HCl buffer, 20 μM) was “at least 7 days”. In addition, in [1] (90% [d6] DMSO/10% D2O, 5 mM), the “time stable in solution (1H NMR)” value is given as “at least 7 days”. In series [2], the p53-dependent luciferase activity result was “increase”.
